Blank lines part the entries; values can stand above or below the compound they belong to.
Key:
[1] = method code SF-AS, from DOI: 10.1248/bpb1978.7.120, PMID: 6427444
[2] = method code SF-AS, from DOI: 10.1081/jlc-120022394
[3] = method code SF, from Huang, Q.; Wang, L.; Han, S.; Wang, G.; Gao, H. (1993). Quantitative relation between molecular structures and the hydrophobic parameters of halogenated arenes. Chemical Journal of Chinese …
[4] = not given; remark: listed apart in the source
[5] = method code SF-HPLC, from DOI: 10.1016/0731-7085(91)80215-u, PMID: 1821151; details: pH 7.4
[6] = not given; remark: listed apart in the source
[7] = method code SF-HPLC, from DOI: 10.1002/jps.10112, PMID: 12115830; details: pH 7.4
[8] = not given; remark: listed apart in the source
[9] = method code SF-AS, from DOI: 10.1016/s0020-1693(00)85781-3
[10] = method code SF-AS, from DOI: 10.1248/cpb.17.2558
[11] = method code SF-HPLC, from DOI: 10.1016/s0006-2952(00)00420-2, PMID: 10974206
[12] = method code SF, from DOI: 10.1021/jm00294a005, PMID: 5000561
[13] = method code SF, from DOI: 10.1016/0165-1218(78)90089-7, PMID: 362190
[14] = not given; remark: listed apart in the source

SMILES: C1CCCCCC2OC2CCCC1 (configuration not stated)
logP: 4.7

SMILES: O=[N+]([O-])c1ccc(Cl)cc1
logP [4]: 2.45

SMILES: Brc1ccc(Br)c(Br)c1
logP [3]: 4.98

SMILES: CCC1OC(=O)CC(O)C(C)C(OC2OC(C)C(OC3C[C@@](C)(O)C(O)C(C)O3)C(N(C)C)C2O)C(CC=O)CC(C)C(=O)C=CC(C)=CC1COC1OC(C)C(O)C(OC)C1OC (some centres not stated)
logP [6]: 1.63

SMILES: CC(O)C(C)SSc1ncc[nH]1 (configuration not stated)
logD [7]: 1.39

SMILES: c1ccc2c(c1)COCCOCCOCCOCCOCc1ccccc1COCCOCCOCCOCCOC2
logP [9]: 1.84

SMILES: Nc1nnc(S(N)(=O)=O)s1
logD ([10]; pH 5.5): -0.9

SMILES: CCCCC1CC(C(=O)NC(CC(C)O)C2OC(SC)C(O)C(O)C2O)N(C)C1 (configuration not stated)
logP [12]: 0.56

SMILES: CCC1OC(=O)CC(O)C(C)C(O[C@H]2OC(C)C(O)C(N(C)C)C2O)C(CCN2CC(C)CC(C)C2)CC(C)C(=O)C=CC(C)=CC1COC1OC(C)C(O)C(OC)C1OC (some centres not stated)
logP [6]: 3.8

SMILES: ClC1=C(Cl)C(Cl)(Cl)C(Cl)=C1Cl
logP: 5.04

SMILES: CCCCCCCCCOC(=O)N1[C@H]2[C@@H]1CN1C3=C(C(=O)C(N)=C(C)C3=O)[C@@H](COC(N)=O)[C@@]21OC
logP [1]: 3.56

SMILES: Brc1cccnc1
logP [14]: 1.5

SMILES: CCC(=O)O[C@H]1[C@H](C)O[C@@H](O[C@H]2[C@H](N(C)C)[C@@H](O)[C@H](O[C@H]3[C@@H](CC=O)C[C@@H](C)[C@@H](O)/C=C/C=C/C[C@@H](C)OC(=O)C[C@@H](O)[C@@H]3OC)O[C@@H]2C)C[C@@]1(C)O
logP [12]: 1.38

SMILES: CCOC(=O)C(=Cc1ccc2c(c1)OCO2)NC=O
logP [2]: 1.66

SMILES: CC(C)(C)c1ccc2c(c1)COCCOCCOCCOCCOCc1cc(C(C)(C)C)ccc1COCCOCCOCCOCCOC2
logP [9]: 3.32

SMILES: CCCC(=O)OC1C(C)OC(OC2C(C)OC(OC3C(CC=O)CC(C)C(O)/C=C\C=C\CC(C)OC(=O)CC(OC(C)=O)C3OC)C(O)C2N(C)C)CC1(C)O (configuration not stated)
logP [12]: 1.88

SMILES: Brc1cc(Br)cc(Br)c1
logP [3]: 4.98

SMILES: CCCCC(=O)OCC(c1cncn1C)C(CC)C(=O)OCC1CCCCC1 (configuration not stated)
logD [5]: 5.56

SMILES: CCCOC(=O)N1C2CN3C4=C(C(=O)C(N)=C(C)C4=O)C(COC(N)=O)C3(OC)C21 (configuration not stated)
logP [1]: 1.51

SMILES: CC(C)(C)SSc1ncc[nH]1
logD [7]: 2.56

SMILES: CO[C@@H]1[C@@H](O[C@@H]2O[C@H](C)[C@@H](O[C@H]3C[C@@](C)(O)[C@@H](OC(C)=O)[C@H](C)O3)[C@H](N(C)C)[C@H]2O)[C@@H](CC=O)C[C@@H](C)[C@@H](O)/C=C\C=C/C[C@@H](C)OC(=O)C[C@H]1O
logP [12]: 0.88

SMILES: CCCCCCCCOC(=O)COc1ccc(Cl)cc1Cl
logP: 5.86

SMILES: CC[C@H]1OC(=O)C[C@@H](O)[C@H](C)[C@@H](O[C@@H]2O[C@H](C)[C@@H](O)[C@H](N(C)C)[C@H]2O)[C@@H](CC=O)C[C@@H](C)C(=O)/C=C/C(C)=C/[C@@H]1CO
logP [6]: 0.99

SMILES: CCC(C)SSc1ncc[nH]1 (configuration not stated)
logD [7]: 2.76

SMILES: c1ccc2c(c1)COCCOCCOCCOCCOC2
logP [9]: 0.7

SMILES: ClC(Cl)=C(c1ccc(Cl)cc1)c1ccc(Cl)cc1
logP: 5.89

SMILES: CCCCCOC(=O)N1C2CN3C4=C(C(=O)C(N)=C(C)C4=O)C(COC(N)=O)C3(OC)C21 (configuration not stated)
logP [1]: 2.45

SMILES: CC(C)(C)c1ccncc1
logP [14]: 2.42

SMILES: FC(F)(Cl)C(F)(Cl)Cl
logP: 3.16

SMILES: CO[C@@H]1[C@@H](O[C@@H]2O[C@H](C)[C@@H](O[C@H]3C[C@@](C)(O)[C@@H](OC(C)=O)[C@H](C)O3)[C@H](N(C)C)[C@H]2O)[C@@H](CC=O)C[C@@H](C)[C@@H](O)/C=C/C=C/C[C@@H](C)OC(=O)C[C@H]1OC(C)=O
logP [12]: 0.88

SMILES: Brc1ccncc1
logP [14]: 1.49

SMILES: C=CCOCC(O)Cn1ccnc1[N+](=O)[O-] (configuration not stated)
logP [13]: 0.3

SMILES: Clc1cccc(Br)c1
logP [3]: 3.83

SMILES: CCOC(=O)C(=Cc1ccoc1)NC=O
logP [2]: 2.08

SMILES: Cn1cnc([N+](=O)[O-])c1Cl
logP [13]: 0.3

SMILES: CCCC(=O)O[C@H]1[C@H](C)O[C@@H](O[C@H]2[C@H](N(C)C)[C@@H](O)[C@H](O[C@H]3[C@@H](CC=O)C[C@@H](C)[C@@H](O)/C=C/C=C/C[C@@H](C)OC(=O)C[C@@H](O)[C@@H]3OC)O[C@@H]2C)C[C@@]1(C)O
logP [12]: 1.88

SMILES: CCSSc1ncc[nH]1
logD [7]: 2.13

SMILES: CO[C@H]1C[C@H](O[C@H]2[C@H](C)[C@@H](O[C@@H]3O[C@H](C)C[C@H](N(C)C)[C@H]3O)[C@@H](C)C[C@@]3(CO3)C(=O)[C@H](C)[C@@H](O)[C@@H](C)[C@@H](C)OC(=O)[C@@H]2C)O[C@@H](C)[C@@H]1O
logP [6]: 1.69

SMILES: O=Cc1cccnc1
logP [14]: 0.29

SMILES: Nc1cccnc1
logP [14]: 0.05

SMILES: c1ccc2c(c1)COCCOCCOCCOCCOCCOC2
logP [9]: 0.15

SMILES: CC[C@H]1OC(=O)[C@H](C)[C@@H](O[C@H]2C[C@@](C)(OC)[C@@H](O)[C@H](C)O2)[C@H](C)[C@@H](O[C@@H]2O[C@H](C)C[C@H](N(C)C)[C@H]2O)[C@](C)(O)C[C@@H](C)C(N)[C@H](C)[C@H]2OC(=O)O[C@@]21C (some centres not stated)
logP [6]: 2.92

SMILES: O=C(O)c1ccc2c(c1)COCCOCCOCCOCCOCCOC2
logP [9]: -0.28

SMILES: CO[C@@H]1[C@@H](O[C@@H]2O[C@H](C)[C@@H](O[C@H]3C[C@@](C)(O)[C@@H](OC(=O)CC(C)C)[C@H](C)O3)[C@H](N(C)C)[C@H]2O)[C@@H](CC=O)C[C@@H](C)C(=O)/C=C/C2OC2C[C@@H](C)OC(=O)C[C@H]1OC(C)=O (some centres not stated)
logP [6]: 3.04

SMILES: Brc1cccc(Br)c1Br
logP [3]: 4.98

SMILES: COC12C(COC(N)=O)C3=C(C(=O)C(C)=C(N)C3=O)N1CC1C2N1C(=O)OC1CCC2=CCC3C(CCC4(C)C(C(C)CCCC(C)C)CCC34)C2(C)CC1 (configuration not stated)
logP [1]: 3.88

The remaining lines, values ahead:

logP [1]: 2.05
SMILES: COC12C(COC(N)=O)C3=C(C(=O)C(C)=C(N)C3=O)N1CC1C2N1C(=O)OCc1ccccc1 (configuration not stated)

logP [2]: 2.91
SMILES: CCOC(=O)C(=CC=Cc1ccccc1)NC=O

logP [3]: 3.83
SMILES: Clc1ccccc1Br

logP [4]: 2.59
SMILES: O=[N+]([O-])c1cccc(Cl)c1

logD [5]: 4.43
SMILES: CCCCC(=O)OCC(c1cncn1C)C(CC)C(=O)OCc1ccccc1 (configuration not stated)

logP [8]: 3.81
SMILES: O=C1c2c(O)cccc2C(C(=O)c2ccccc2)c2cccc(O)c21

logD ([10]; pH 2.0): 1.73
SMILES: NS(=O)(=O)c1ccc([N+](=O)[O-])c(C(F)(F)F)c1

logP [11]: 3.6
SMILES: CN(C)CCCNc1c2ccccc2nc2ccccc12

logP [8]: 4.22
SMILES: O=C1c2c(O)cccc2C(C(=O)c2ccc(OCc3ccccc3)cc2)c2cccc(O)c21

logP [13]: -0.59
SMILES: Cc1nc([N+](=O)[O-])cn1CCO

logP [11]: 3.1
SMILES: CN(C)CCCNc1c2ccccc2[n+]([O-])c2cccc([N+](=O)[O-])c12

logP [1]: 1.54
SMILES: COC12C(COC(N)=O)C3=C(C(=O)C(C)=C(N)C3=O)N1CC1C2N1C(=O)Cc1ccccc1 (configuration not stated)

logD [7]: 3.05
SMILES: c1ccc(CSSc2ncc[nH]2)cc1

logP [8]: 2.79
SMILES: O=C1c2c(O)cccc2C(C(=O)c2ccc(O)c(O)c2)c2cccc(O)c21

logP [8]: 3.11
SMILES: O=C1c2c(O)cccc2C(C(=O)c2ccc(O)cc2)c2cccc(O)c21

logD ([10]; pH 2.0): 0.84
SMILES: Cc1ccccc1S(N)(=O)=O

logD [5]: 2.87
SMILES: CCC(C(=O)OCc1ccccc1)C(COC(C)=O)c1cncn1C (configuration not stated)

logP [2]: 2.41
SMILES: CCOC(=O)C(=Cc1ccccc1Cl)NC=O

logP [11]: 3.8
SMILES: CN(C)CCCNc1c2ccccc2nc2cccc([N+](=O)[O-])c12

logP [4]: 2.16
SMILES: CN(C)c1cccc([N+](=O)[O-])c1

logP [8]: 2.44
SMILES: O=C1c2c(O)cccc2C(C(=O)c2cc(O)c(O)c(O)c2)c2cccc(O)c21

logD [5]: 5.64
SMILES: CCC(C(=O)OCc1ccccc1)C(COC(=O)c1cccc(Cl)c1)c1cncn1C (configuration not stated)

logD [5]: 3.3
SMILES: CCC(=O)OCC(c1cncn1C)C(CC)C(=O)OCc1ccccc1 (configuration not stated)

logP [11]: 0.4
SMILES: C[N+](C)([O-])CCCNc1c2ccccc2nc2ccccc12

logP [4]: 2.09
SMILES: COc1cccc([N+](=O)[O-])c1

logP [2]: 2.51
SMILES: CCOC(=O)C(=Cc1cccc(Cl)c1)NC=O

logP [11]: 2.5
SMILES: CN(C)CCCNc1c2ccccc2[n+]([O-])c2ccccc12

logP [2]: 2.48
SMILES: CCOC(=O)C(=Cc1ccccc1)NC=O

logD ([10]; pH 2.0): 1.91
SMILES: NS(=O)(=O)c1ccc(Cl)c([N+](=O)[O-])c1

logD ([10]; pH 2.0): 0.85
SMILES: Cc1cccc(S(N)(=O)=O)c1

logP [8]: 3.68
SMILES: O=C1c2c(O)cccc2C(C(=O)c2ccc3c(c2)OCO3)c2cccc(O)c21

logP [11]: 1.4
SMILES: C[N+](C)([O-])CCCNc1c2ccccc2nc2cccc([N+](=O)[O-])c12

logP [4]: 2.5
SMILES: O=[N+]([O-])c1ccccc1Br

logD [5]: 4.57
SMILES: CCC(C(=O)OCc1ccccc1)C(COC(=O)c1ccccc1)c1cncn1C (configuration not stated)

logP [13]: 0.15
SMILES: NC(=O)/C(=C\c1ccc([N+](=O)[O-])o1)c1ccco1

logP [13]: -1.12
SMILES: CCN(CC)CCCNC(=O)C(=O)NN=Cc1ccc([N+](=O)[O-])o1
